# Measured values from patent publication US10308643B2, “Heterocyclic compound” (Takeda Pharmaceutical Company Limited, priority 2015, dated 2019).
# Columns and labels:
# Type in all cases: biochemical
# HDAC1 enzyme = target: T1, HDAC1 enzyme (Homo sapiens, UniProt Q13547); test: HDAC1/6 Enzyme Inhibitory Assay (HDAC-Glo I/II Assay kit), HDAC1; settings: 1 μM test compound, wells without enzyme = 100% inhibition; for inhibition at 1 µM: read-out: HDAC1 inhibitory rate (%) (1 μM)
# T1 construct: transducing full length HDAC1 and HDAC6 genes into Sf-9 insect cells; GST; purchased SignalChem; host or cells: Sf-9 insect cells
# Summary of the method: (§1)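 Full-length human HDAC1 or HDAC6, GST-purified from Sf-9 cells, was preincubated with compound for 60 min at room temperature in Tris-HCl pH 7.5 buffer with MgCl2, KCl, NaCl, glutathione and Tween-20. HDAC-Glo I/II substrate-developer was then added and reacted for 20 min before luminescence was read. Inhibition was set relative to no-enzyme wells as 100% inhibition.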
# HDAC9 enzyme = target: T2, HDAC9 enzyme (Homo sapiens, UniProt Q9UKV0); test: HDAC9 Enzyme Inhibitory Assay (HDAC-Glo class IIa); settings: 1 μM test compound, wells without enzyme = 100% inhibition; for inhibition at 1 µM: read-out: HDAC9 inhibitory rate (%) (1 μM)
# T2 construct: transducing full length HDAC9 gene into Sf-9 insect cells; made in house; host or cells: Sf-9 insect cells
# Summary of the method: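 Luminescent HDAC-Glo class IIa readout after a 20 min room-temperature reaction; relative inhibition referenced to enzyme-free wells as 100%. Test compound first preincubated 60 min with Sf-9-expressed, Ni-NTA-purified full-length HDAC9 in pH 7.5 Tris buffer containing 135 mM NaCl, 0.6 mM glutathione and 0.01% Tween-20.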
# HDAC6 enzyme = target: T3, HDAC6 enzyme (Homo sapiens, UniProt Q9UBN7); test: HDAC1/6 Enzyme Inhibitory Assay (HDAC-Glo I/II Assay kit), HDAC6; settings: 1 μM test compound, wells without enzyme = 100% inhibition; for inhibition at 1 µM: read-out: HDAC6 inhibitory rate (%) (1 μM)
# T3 construct: transducing full length HDAC1 and HDAC6 genes into Sf-9 insect cells; GST; purchased SignalChem; host or cells: Sf-9 insect cells
# T3 sequence (Q9UBN7 1-1215): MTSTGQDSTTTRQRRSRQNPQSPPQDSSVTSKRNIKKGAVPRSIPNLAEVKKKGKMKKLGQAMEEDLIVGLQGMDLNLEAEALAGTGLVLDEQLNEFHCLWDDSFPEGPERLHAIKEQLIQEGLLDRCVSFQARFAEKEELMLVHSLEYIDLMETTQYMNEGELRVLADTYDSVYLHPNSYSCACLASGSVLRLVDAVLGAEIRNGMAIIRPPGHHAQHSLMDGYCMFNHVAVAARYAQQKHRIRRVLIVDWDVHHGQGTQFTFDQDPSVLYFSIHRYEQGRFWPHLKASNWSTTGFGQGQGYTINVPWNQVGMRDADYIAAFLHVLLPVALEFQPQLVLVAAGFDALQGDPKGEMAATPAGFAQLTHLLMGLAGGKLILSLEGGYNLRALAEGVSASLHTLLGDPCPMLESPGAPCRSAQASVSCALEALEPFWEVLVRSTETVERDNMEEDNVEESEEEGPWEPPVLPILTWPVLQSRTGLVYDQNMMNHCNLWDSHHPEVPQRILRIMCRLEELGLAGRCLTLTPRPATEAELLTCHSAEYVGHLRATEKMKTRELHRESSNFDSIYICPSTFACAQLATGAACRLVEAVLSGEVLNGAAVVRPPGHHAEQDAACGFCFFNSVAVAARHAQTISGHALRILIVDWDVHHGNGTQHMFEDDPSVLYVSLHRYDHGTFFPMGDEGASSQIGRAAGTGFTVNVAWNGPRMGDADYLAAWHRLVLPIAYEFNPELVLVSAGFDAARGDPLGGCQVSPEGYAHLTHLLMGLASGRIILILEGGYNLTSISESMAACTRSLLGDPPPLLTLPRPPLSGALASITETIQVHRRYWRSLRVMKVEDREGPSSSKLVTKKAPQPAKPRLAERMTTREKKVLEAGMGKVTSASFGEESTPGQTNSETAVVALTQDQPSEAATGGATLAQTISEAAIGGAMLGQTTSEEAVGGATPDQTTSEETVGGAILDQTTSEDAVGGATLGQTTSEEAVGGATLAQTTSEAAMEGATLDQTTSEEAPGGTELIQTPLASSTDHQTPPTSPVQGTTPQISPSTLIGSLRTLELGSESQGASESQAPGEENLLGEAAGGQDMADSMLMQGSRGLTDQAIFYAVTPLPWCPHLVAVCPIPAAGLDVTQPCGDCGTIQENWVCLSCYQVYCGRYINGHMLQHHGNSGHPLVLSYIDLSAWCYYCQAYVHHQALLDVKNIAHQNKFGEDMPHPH
# Summary of the method: as §1
# T2 sequence (Q9UKV0 whole entry, species assumed): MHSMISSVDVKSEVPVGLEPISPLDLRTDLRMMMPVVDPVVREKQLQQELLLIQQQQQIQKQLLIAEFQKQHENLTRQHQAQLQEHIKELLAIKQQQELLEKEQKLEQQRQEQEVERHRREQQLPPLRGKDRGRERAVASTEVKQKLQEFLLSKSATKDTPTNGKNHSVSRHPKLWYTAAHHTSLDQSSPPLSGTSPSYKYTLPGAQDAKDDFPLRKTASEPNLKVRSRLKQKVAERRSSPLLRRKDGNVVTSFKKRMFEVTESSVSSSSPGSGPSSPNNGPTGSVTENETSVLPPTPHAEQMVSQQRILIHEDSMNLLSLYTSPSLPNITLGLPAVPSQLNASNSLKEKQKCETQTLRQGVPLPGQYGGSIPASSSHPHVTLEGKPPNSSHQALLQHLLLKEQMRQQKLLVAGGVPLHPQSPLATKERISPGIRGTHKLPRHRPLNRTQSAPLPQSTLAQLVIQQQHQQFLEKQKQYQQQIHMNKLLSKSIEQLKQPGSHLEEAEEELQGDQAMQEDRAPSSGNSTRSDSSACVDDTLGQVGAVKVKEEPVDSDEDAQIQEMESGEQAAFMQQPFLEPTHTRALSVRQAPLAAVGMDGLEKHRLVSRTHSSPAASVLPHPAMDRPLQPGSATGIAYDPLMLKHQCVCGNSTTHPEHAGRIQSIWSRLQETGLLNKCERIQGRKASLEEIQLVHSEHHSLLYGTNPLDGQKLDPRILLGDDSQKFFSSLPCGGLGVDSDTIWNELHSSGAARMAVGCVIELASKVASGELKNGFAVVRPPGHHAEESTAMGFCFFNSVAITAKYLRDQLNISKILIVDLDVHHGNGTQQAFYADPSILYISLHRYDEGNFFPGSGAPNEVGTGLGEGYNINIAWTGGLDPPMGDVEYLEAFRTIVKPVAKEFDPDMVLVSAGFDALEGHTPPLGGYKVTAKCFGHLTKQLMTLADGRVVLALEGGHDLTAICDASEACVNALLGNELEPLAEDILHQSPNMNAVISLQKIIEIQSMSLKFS
# T1 sequence (Q13547 whole entry): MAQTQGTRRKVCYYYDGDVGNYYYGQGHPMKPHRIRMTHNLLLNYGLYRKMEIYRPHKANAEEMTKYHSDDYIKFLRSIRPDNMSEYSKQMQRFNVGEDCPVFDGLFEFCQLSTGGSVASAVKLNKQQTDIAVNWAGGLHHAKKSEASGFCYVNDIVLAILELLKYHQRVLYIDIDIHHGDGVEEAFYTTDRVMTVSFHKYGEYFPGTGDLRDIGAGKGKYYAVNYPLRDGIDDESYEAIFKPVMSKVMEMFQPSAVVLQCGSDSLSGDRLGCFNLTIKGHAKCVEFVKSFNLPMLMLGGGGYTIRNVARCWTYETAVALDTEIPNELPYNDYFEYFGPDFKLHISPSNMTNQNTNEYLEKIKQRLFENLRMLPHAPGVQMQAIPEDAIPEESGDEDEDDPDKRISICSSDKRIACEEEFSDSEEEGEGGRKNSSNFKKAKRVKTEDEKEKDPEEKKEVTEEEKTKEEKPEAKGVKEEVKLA
SMILES,inhibition at 1 µM (HDAC1 enzyme),inhibition at 1 µM (HDAC9 enzyme),inhibition at 1 µM (HDAC6 enzyme),HDAC1 inhibitory rate (%) (1 μM) (HDAC1 enzyme),HDAC9 inhibitory rate (%) (1 μM) (HDAC9 enzyme),HDAC6 inhibitory rate (%) (1 μM) (HDAC6 enzyme; 1 µM),HDAC6 inhibitory rate (%) (1 μM) (HDAC6 enzyme)
"CN1CCC[C@@H]1C(=O)N[C@@H]1CCCC[C@H]1N1Cc2ccc(-c3noc(C(F)(F)F)n3)cc2C1=O [Example 94, 1-methyl-N-((1R,2R)-2-(1-oxo-6-(5-(trifluoromethyl)-1,2,4-oxadiazol-3-yl)-1,3-dihydro-2H-isoindol-2-yl)cyclohexyl)-D-prolinamide]",5%,24%,99%,,,,
"CC(C)(O)CC(=O)N[C@@H]1CCCC[C@H]1N1Cc2ccc(-c3noc(C(F)(F)F)n3)cc2C1=O [Example 96, 3-hydroxy-3-methyl-N-((1R,2R)-2-(1-oxo-6-(5-(trifluoromethyl)-1,2,4-oxadiazol-3-yl)-1,3-dihydro-2H-isoindol-2-yl)cyclohexyl)butanamide]",10%,50%,101%,,,,
"O=C1c2cc(-c3noc(C(F)(F)F)n3)ccc2CN1[C@H]1C[C@@H]1c1ccccc1 (relative stereo) [Example 66, 2-(trans-2-phenylcyclopropyl)-6-(5-(trifluoromethyl)-1,2,4-oxadiazol-3-yl)isoindolin-1-one]",17%,54%,90%,,,,
"CC(C)(C)OC(=O)N[C@@H]1CCCC[C@H]1N1Cc2ccc(-c3noc(C(F)(F)F)n3)cc2C1=O (relative stereo) [Example 6, tert-butyl trans-(2-(1-oxo-6-(5-(trifluoromethyl)-1,2,4-oxadiazol-3-yl)-1,3-dihydro-2H-isoindol-2-yl)cyclohexyl)carbamate]",9%,65%,95%,,,,
"CC1(C(=O)N[C@H]2CCC[C@@H]2N2Cc3ccc(-c4noc(C(F)(F)F)n4)cc3C2=O)COC1 [Example 152, 3-methyl-N-((1S,2S)-2-(1-oxo-6-(5-(trifluoromethyl)-1,2,4-oxadiazol-3-yl)-1,3-dihydro-2H-isoindol-2-yl)cyclopentyl)oxetane-3-carboxamide]",13%,38%,31%,,,,
"CC(=O)N[C@@H]1CCCC[C@H]1N1Cc2ccc(-c3noc(C(F)(F)F)n3)cc2C1=O (relative stereo) [Example 8, trans-N-(2-(1-oxo-6-(5-(trifluoromethyl)-1,2,4-oxadiazol-3-yl)-1,3-dihydro-2H-isoindol-2-yl)cyclohexyl)acetamide]",10%,43%,98%,,,,
"CC1(C(=O)N[C@@H]2CCCC[C@H]2N2Cc3ccc(-c4noc(C(F)(F)F)n4)cc3C2=O)CC1(F)F (stereo partly drawn) [Example 170, 2,2-difluoro-1-methyl-N-((1R,2R)-2-(1-oxo-6-(5-(trifluoromethyl)-1,2,4-oxadiazol-3-yl)-1,3-dihydro-2H-isoindol-2-yl)cyclohexyl) cyclopropanecarboxamide]",,,,16%,64%,100%,
"O=C(N[C@@H]1CCCC[C@H]1N1Cc2ccc(-c3noc(C(F)(F)F)n3)cc2C1=O)N1CC2CC1CO2 (stereo partly drawn) [Example 156, N-((1R,2R)-2-(1-oxo-6-(5-(trifluoromethyl)-1,2,4-oxadiazol-3-yl)-1,3-dihydro-2H-isoindol-2-yl)cyclohexyl)-2-oxa-5-azabicyclo[2.2.1]heptane-5-carboxamide]",,8%,96%,−1%,,,
"O=C(N[C@@H]1CCCC[C@H]1N1Cc2ccc(-c3noc(C(F)(F)F)n3)cc2C1=O)N1CC2CC1CO2 (stereo partly drawn) [Example 157, N-((1R,2R)-2-(1-oxo-6-(5-(trifluoromethyl)-1,2,4-oxadiazol-3-yl)-1,3-dihydro-2H-isoindol-2-yl)cyclohexyl)-2-oxa-5-azabicyclo[2.2.1]heptane-5-carboxamide]",,,,−2%,15%,,96%
"O=C(N[C@@H]1CCCC[C@H]1N1Cc2ccc(-c3noc(C(F)(F)F)n3)cc2C1=O)C1CC1 [Example 32, N-((1R,2R)-2-(1-oxo-6-(5-(trifluoromethyl)-1,2,4-oxadiazol-3-yl)-1,3-dihydro-2H-isoindol-2-yl)cyclohexyl)cyclopropanecarboxamide]",5%,52%,99%,,,,
"O=C(N[C@@H]1CCCC[C@H]1N1Cc2ccc(-c3noc(C(F)(F)F)n3)cc2C1=O)N1CC2CC(C1)O2 [Example 164, N-((1R,2R)-2-(1-oxo-6-(5-(trifiuoromethyl)-1,2,4-oxadiazol-3-yl)-1,3-dihydro-2H-isoindol-2-yl)cyclohexyl)-6-oxa-3-azabicyclo[3.1.1]heptane-3-carboxamide]",1%,18%,97%,,,,

# Now from value to compound:
inhibition at 1 µM (HDAC1 enzyme),inhibition at 1 µM (HDAC9 enzyme),inhibition at 1 µM (HDAC6 enzyme),HDAC1 inhibitory rate (%) (1 μM) (HDAC1 enzyme),HDAC9 inhibitory rate (%) (1 μM) (HDAC9 enzyme),HDAC6 inhibitory rate (%) (1 μM) (HDAC6 enzyme; 1 µM),HDAC6 inhibitory rate (%) (1 μM) (HDAC6 enzyme),SMILES
19%,84%,100%,,,,,"O=C(N[C@@H]1CCOC[C@H]1N1Cc2ccc(-c3noc(C(F)(F)F)n3)cc2C1=O)[C@H]1CC1(F)F [Example 190, (1R)-2,2-difluoro-N-((3S,4R)-3-(1-oxo-6-(5-(trifluoromethyl)-1,2,4-oxadiazol-3-yl)-1,3-dihydro-2H-isoindol-2-yl)tetrahydro-2H-pyran-4-yl)cyclopropanecarboxamide]"
5%,50%,40%,,,,,"CC(C)(O)C(=O)N[C@H]1CCCC[C@@H]1N1Cc2ccc(-c3noc(C(F)(F)F)n3)cc2C1=O [Example 219, 2-hydroxy-2-methyl-N-((1S,2S)-2-(1-oxo-6-(5-(trifluoromethyl)-1,2,4-oxadiazol-3-yl)-1,3-dihydro-2H-isoindol-2-yl)cyclohexyl)propanamide]"
6%,40%,99%,,,,,"CC1(C(=O)N[C@@H]2CCOC[C@H]2N2Cc3ccc(-c4noc(C(F)(F)F)n4)cc3C2=O)COC1 [Example 192, 3-methyl-N-((3S,4R)-3-(1-oxo-6-(5-(trifluoromethyl)-1,2,4-oxadiazol-3-yl)-1,3-dihydro-2H-isoindol-2-yl)tetrahydro-2H-pyran-4-yl)oxetane-3-carboxamide]"
7%,56%,98%,,,,,"O=C1CCCN1c1ccccc1N1Cc2ccc(-c3noc(C(F)(F)F)n3)cc2C1=O [Example 184, 2-(2-(2-oxopyrrolidin-1-yl)phenyl)-6-(5-(trifluoromethyl)-1,2,4-oxadiazol-3-yl)isoindolin-1-one]"
10%,45%,95%,,,,,"CN(C)C(=O)c1ccccc1N1Cc2ccc(-c3noc(C(F)(F)F)n3)cc2C1=O [Example 188, N,N-dimethyl-2-(1-oxo-6-(5-(trifluoromethyl)-1,2,4-oxadiazol-3-yl)-1,3-dihydro-2H-isoindol-2-yl)benzamide]"
,,,8%,61%,99%,,"O=C1CCCN1[C@@H]1CCOC[C@H]1N1Cc2ccc(-c3noc(C(F)(F)F)n3)cc2C1=O [Example 178, 2-((3S,4R)-4-(2-oxopyrrolidin-1-yl)tetrahydro-2H-pyran-3-yl)-6-(5-(trifluoromethyl)-1,2,4-oxadiazol-3-yl)isoindolin-1-one]"
